Experimental data as given in patent publication US8877949B2, “Furo[3,2-g]chromene compounds and uses thereof” (Shenyang Pharmaceutical University, priority 2010, dated 2014).

Assays:
[1] = tested on: Osteosarcoma Cells U2OS-EGFP-4A12G; experiment: Effect on the proliferation of osteosarcoma cells U2OS-EGFP-4A12G (MTT); assay type: cell-based; settings: n = 3
Experimental: Cells in the logarithmic growth phase were digested with trypsin, counted with trypan blue, and prepared into a cellular suspension with a density of 1×10^4 cells/mL. The suspension was seeded in a 96-well plate, 200 μL/well, about 2×10^3 cells/well, and pre-cultured for 24 h. […] A concentration of 0 mg/mL was used as a negative control group. After subsequent cultivatation for 0 h, 12 h, 24 h or 48 h, 20 μL MTT solution (5 mg/mL) was added to each well. The cultivation was terminated after another 4 h incubation. The supernatant in each well was sucked out carefully, and 150 μL of dimethyl sulfoxide (DMSO) was added to each well. The plate was shaken for 10 min, so that formazan was dissolved thoroughly. The absorption value (A value) of each well was measured using an enzyme linked immunosorbent detector, at a selected wavelength of 490 nm. The measurement was repeated for 5 times.

[2] = tested on: Ovarian Cancer Cells SKOV3; experiment: Effect on the proliferation of ovarian cancer cells SKOV3 (MTT); assay type: cell-based
Experimental: Cells in the logarithmic growth phase were digested with trypsin, added to a 96-well plate, in a density of 6×10^3 cells/well, and cultured in a 37° C., 5% CO2 incubator. The next day, the plated was transferred to and kept in a 4° C. incubator for 1 h after the adherence of most cells, so as to achieve synchronized growth of the cells. The supernatant was sucked out, and a RPMI 1640 medium containing 10% fetal calf serum (FCS) was added, 200 μL/well. The cells were grouped according to the design of the experiment. The injectable solution of the compound prepared with sterile physiological saline was added to the 96 wells, 200 μL/well, so that the concentrate of the medicament in each well were 1 mg/mL, 2 mg/mL and 5 mg/mL, respectively. A concentration of 0 mg/mL was used as a negative control group. After subsequent cultivation for 24, 48, or 72 h, 20 μL MTT solution (with a concentration of 5 mg/mL) was added to each well, respectively. The plate was shaken gently, returned to the incubator and incubated for another 4 h. Then the supernatant was sucked out completely, and 200 μL of dimethyl sulfoxide was added to each well. The plate was shaken for 5-10 min on a shaker. The absorption (A=580) of each well at a wavelength of 580 nm was measured using a microplate reader. The A=580 value was proportional to the number of live cells.

Structure (SMILES) | melting point [°C] | IC50 [1] [µM] | IC50 ([2]; Homo sapiens, SK-OV-3, n = 3) [µM] | IC50 ([2]; n = 3) [µM]
COc1ccc(-c2c(C(=O)c3ccccc3)oc3cc4c(cc23)CCCO4)cc1 [Example 1, 2-benzoyl-3-(4-methoxyphenyl)-6,7-dihydrogen-5H-furo[3,2-g]chromene] | 106.3 to 108.5 | – | – | –
COc1ccc(C(=O)c2oc3cc4c(cc3c2-c2ccccc2)CCCO4)cc1 [Example 2, 2-(4-methoxybenzoyl)-3-phenyl-6,7-dihydrogen-5H-furo[3,2-g]chromene] | 130.3 to 132.5 | – | – | –
O=C(c1ccccc1)c1oc2cc3c(cc2c1-c1ccc(O)cc1)CCCO3 [Example 7, 2-benzoyl-3-(4-hydroxyphenyl)-6,7-dihydrogen-5H-furo[3,2-g]chromene] | – | 13.7 | 0.8 | –
O=C(c1ccc(Cl)cc1)c1oc2cc3c(cc2c1-c1ccc(OCCN2CCCCC2)cc1)CCCO3 [Example 30, 2-(4-chlorobenzoyl)-3-[4-(piperidinoethoxy)phenyl]-6,7-dihydrogen-5H-furo[3,2-g]chromene] | – | 26.3 | – | 72.2
Cc1ccc(C(=O)c2oc3cc4c(cc3c2-c2ccc(OCCN(C)C)cc2)CCCO4)cc1 [Example 36, 2-(4-methylbenzoyl)-3-[4-(dimethylaminoethoxy)phenyl]-6,7-dihydrogen-5H-furo[3,2-g]chromene] | – | 7.7 | 10.3 | –
O=C(c1ccc(Br)cc1)c1oc2cc3c(cc2c1-c1ccc(OCCN2CCOCC2)cc1)CCCO3 [Example 41, 2-(4-bromobenzoyl)-3-[4-(morpholinoethoxy)phenyl]-6,7-dihydrogen-5H-furo[3,2-g]chromene] | – | 5 | 42.5 | –
O=C(c1ccc(Br)cc1)c1oc2cc3c(cc2c1-c1ccc(OCCN2CCCCC2)cc1)CCCO3 [Example 42, 2-(4-bromobenzoyl)-3-[4-(piperidinoethoxy)phenyl]-6,7-dihydrogen-5H-furo[3,2-g]chromene] | – | 13.3 | 32.8 | –
CN(C)CCOc1ccc(-c2c(C(=O)c3ccc(Br)cc3)oc3cc4c(cc23)CCCO4)cc1 [Example 44, 2-(4-bromobenzoyl)-3-[4-(dimethylaminoethoxy)phenyl]-6,7-dihydrogen-5H-furo[3,2-g]chromene] | – | 15.6 | 19 | –
COc1ccc(-c2c(C(=O)c3ccc(OCCN4CCCCC4)cc3)oc3cc4c(cc23)CCCO4)cc1 [Example 48, 2-[4-(piperidinoethoxy)benzoyl]-3-(4-methoxyphenyl)-6,7-dihydrogen-5H-furo[3,2-g]chromene] | – | 5.1 | 14.5 | –
O=C(c1ccc(OCCN2CCCCC2)cc1)c1oc2cc3c(cc2c1-c1ccc(O)cc1)CCCO3 [Example 55, 2-[4-(piperidinoethoxy)benzoyl]-3-(4-hydroxyphenyl)-6,7-dihydrogen-5H-furo[3,2-g]chromene] | – | 10.8 | – | 13.6

Next, values leading:

melting point [°C] | IC50 [1] [µM] | IC50 ([2]; Homo sapiens, SK-OV-3, n = 3) [µM] | IC50 ([2]; n = 3) [µM] | Structure (SMILES)
– | 21.7 | – | – | COc1ccc(-c2c(C(=O)c3ccc(Cl)cc3)oc3cc4c(cc23)CCCO4)cc1 [Example 3, 2-(4-chlorobenzoyl)-3-(4-methoxyphenyl)-6,7-dihydrogen-5H-furo[3,2-g]chromene]
– | 16.5 | – | 28.2 | CCN(CC)CCOc1ccc(-c2c(C(=O)c3ccccc3)oc3cc4c(cc23)CCCO4)cc1 [Example 21, 2-benzoyl-3-[4-(diethylaminoethoxy)phenyl]-6,7-dihydrogen-5H-furo[3,2-g]chromene]
– | 36.1 | 8.5 | – | CCN(CC)CCOc1ccc(-c2c(C(=O)c3ccc(Cl)cc3)oc3cc4c(cc23)CCCO4)cc1 [Example 31, 2-(4-chlorobenzoyl)-3-[4-(diethylaminoethoxy)phenyl]-6,7-dihydrogen-5H-furo[3,2-g]chromene]
– | 5.8 | 29.7 | – | CCN(CC)CCOc1ccc(-c2c(C(=O)c3ccc(C)cc3)oc3cc4c(cc23)CCCO4)cc1 [Example 35, 2-(4-methylbenzoyl)-3-[4-(diethylaminoethoxy)phenyl]-6,7-dihydrogen-5H-furo[3,2-g]chromene]
– | 5.5 | 14.5 | – | CCN(CC)CCOc1ccc(C(=O)c2oc3cc4c(cc3c2-c2ccc(OC)cc2)CCCO4)cc1 [Example 50, 2-[4-(diethylaminoethoxy)benzoyl]-3-(4-methoxyphenyl)-6,7-dihydrogen-5H-furo[3,2-g]chromene]
